Laboratory results as given in patent US7138361B2, “Herbicidal heterocycles” (E. I. du Pont de Nemours and Company, priority 2000, dated 2006).

What was measured:
Format in all cases: in vivo
wild oat (Avena fatua) = test: Test B postemergence; details: Rate 500 g/ha, scale 0 to 100, 0 is no effect, 100 is complete control, 13 to 15 days
Method in brief: (§1)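 Greenhouse test: chemicals are formulated in a surfactant-containing non-phytotoxic solvent and applied either preemergence to planted seeds or postemergence to plants 2 to 18 cm tall. Response is rated visually versus controls after 13 to 15 days, 0 meaning no effect and 100 complete control.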

[1] = system: velvetleaf (Abutilon theophrasti); test: Test B postemergence; details: Rate 500 g/ha, scale 0 to 100, 0 is no effect, 100 is complete control, 13 to 15 days
Method in brief: as §1

[2] = system: wheat (Triticum aestivum); test: Test B postemergence; details: Rate 500 g/ha, scale 0 to 100, 0 is no effect, 100 is complete control, 13 to 15 days
Method in brief: as §1

[3] = system: lambsquarters (Chenopodium album); test: Test B postemergence; details: Rate 500 g/ha, scale 0 to 100, 0 is no effect, 100 is complete control, 13 to 15 days
Method in brief: as §1

corn (Zea mays) [4] = test: Test B postemergence; details: 13 to 15 days
Method in brief: as §1

[5] = system: barnyardgrass (Echinochloa crus-galli); test: Test B postemergence; details: 13 to 15 days
Method in brief: as §1

[6] = system: Surinam grass (Brachiaria decumbens); test: Test B postemergence; details: 13 to 15 days
Method in brief: as §1

[7] = system: pigweed (Amaranthus retroflexus); test: Test B postemergence; details: Rate 500 g/ha, scale 0 to 100, 0 is no effect, 100 is complete control, 13 to 15 days
Method in brief: as §1

[8] = system: blackgrass (Alopecurus myosuroides); test: Test B postemergence; details: 13 to 15 days
Method in brief: as §1

[9] = system: morning glory (Ipomoea hederacea); test: Test B postemergence; details: Rate 500 g/ha, scale 0 to 100, 0 is no effect, 100 is complete control, 13 to 15 days
Method in brief: as §1

[10] = system: giant foxtail (Setaria faberii); test: Test B postemergence; details: 13 to 15 days
Method in brief: as §1

[11] = system: crabgrass (Digitaria sanguinalis); test: Test B postemergence; details: 13 to 15 days
Method in brief: as §1

[12] = system: cocklebur (Xanthium strumarium); test: Test B postemergence; details: 13 to 15 days
Method in brief: as §1

rice (Oryza saliva) = test: Test B preemergence
Method in brief: as §1

[13] = system: velvetleaf (Abutilon theophrasti); test: Test B preemergence
Method in brief: as §1

[14] = system: lambsquarters (Chenopodium album); test: Test B preemergence
Method in brief: as §1

corn (Zea mays) [15] = test: Test B preemergence
Method in brief: as §1

[16] = system: barnyardgrass (Echinochloa crus-galli); test: Test B preemergence
Method in brief: as §1

[17] = system: Surinam grass (Brachiaria decumbens); test: Test B preemergence
Method in brief: as §1

[18] = system: pigweed (Amaranthus retroflexus); test: Test B preemergence
Method in brief: as §1

[19] = system: morning glory (Ipomoea hederacea); test: Test B preemergence
Method in brief: as §1

[20] = system: giant foxtail (Setaria faberii); test: Test B preemergence
Method in brief: as §1

[21] = system: crabgrass (Digitaria sanguinalis); test: Test B preemergence
Method in brief: as §1

[22] = system: cocklebur (Xanthium strumarium); test: Test B preemergence
Method in brief: as §1

Sunflower = test: Test C preemergence; details: Rate 250 g/ha, scale 0 to 100, 0 no effect, 100 complete control
Nightshade = test: Test C preemergence; details: Rate 500 g/ha, visual evaluation after 12 to 14 days
[23] = Rate 125 g/ha, scale 0 (no effect) to 100 (complete control)
[24] = Rate 500 g/ha, scale 0 to 100, 0 is no effect, 100 is complete control
[25] = Preemergence, Rate 500 g/ha, scale 0 to 100, 0 no effect, 100 complete control
[26] = preemergence, Rate 125 g/ha, scale of 0 to 100 where 0 is no effect and 100 is complete control, 13 to 15 days

Compound: CCCC(C)c1ccn(C2SCN(c3cccc(C(F)(F)F)c3)C2=O)n1 (stereo not shown) [Compound 92]
- Plant response rating, Wild Oat (wild oat (Avena fatua)): 0
- Plant response rating, Velvetleaf [1]: 20
- Plant response rating, Wheat [2]: 0
- Plant response rating, Lambsquarters [3]: 90
- Plant response rating, Corn (corn (Zea mays) [4]; [23]): 0
- Plant response rating, Corn (corn (Zea mays) [4]; [24]): 10
- Plant response rating, Barnyardgrass [5, 23]: 0
- Plant response rating, Barnyardgrass [5, 24]: 70
- Plant response rating, Surinam grass [6, 23]: 0
- Plant response rating, Surinam grass [6, 24]: 10
- Plant response rating, Pigweed [7]: 60
- Plant response rating, Blackgrass [8, 23]: 0
- Plant response rating, Blackgrass [8, 24]: 0
- Plant response rating, Morningglory [9]: 50
- Plant response rating, Foxtail, Giant [10, 23]: 0
- Plant response rating, Foxtail, Giant [10, 24]: 30
- Plant response rating, Crabgrass [11, 23]: 10
- Plant response rating, Crabgrass [11, 24]: 50
- Plant response rating, Cocklebur [12, 23]: 20
- Plant response rating, Cocklebur [12, 24]: 80
- Plant response rating, Rice (rice (Oryza saliva); [25]): 0
- Plant response rating, Rice (rice (Oryza saliva); [26]): 0
- Plant response rating, Velvetleaf [13, 25]: 0
- Plant response rating, Velvetleaf [13, 26]: 0
- Plant response rating, Lambsquarters [14, 25]: 100
- Plant response rating, Lambsquarters [14, 26]: 100
- Plant response rating, Corn (corn (Zea mays) [15]; [25]): 0
- Plant response rating, Corn (corn (Zea mays) [15]; [26]): 0
- Plant response rating, Barnyardgrass [16, 25]: 100
- Plant response rating, Barnyardgrass [16, 26]: 30
- Plant response rating, Surinam grass [17, 25]: 70
- Plant response rating, Surinam grass [17, 26]: 0
- Plant response rating, Pigweed [18, 25]: 100
- Plant response rating, Pigweed [18, 26]: 80
- Plant response rating, Morningglory [19, 25]: 0
- Plant response rating, Morningglory [19, 26]: 0
- Plant response rating, Foxtail, Giant [20, 25]: 100
- Plant response rating, Foxtail, Giant [20, 26]: 50
- Plant response rating, Crabgrass [21, 25]: 100
- Plant response rating, Crabgrass [21, 26]: 50
- Plant response rating, Cocklebur [22, 25]: 0
- Plant response rating, Cocklebur [22, 26]: 0
- Plant response rating, Sunflower (Sunflower): 40
- Plant response rating (0 to 100), Nightshade (Nightshade): 80

Compound: CC(C)(C)c1ccn(C2CCN(c3cccc(SC(F)(F)F)c3)C2=O)n1 (stereo not shown) [Compound 93]
- Plant response rating, Wild Oat (wild oat (Avena fatua)): 0
- Plant response rating, Velvetleaf [1]: 10
- Plant response rating, Wheat [2]: 0
- Plant response rating, Lambsquarters [3]: 80
- Plant response rating, Corn (corn (Zea mays) [4]; [23]): 0
- Plant response rating, Corn (corn (Zea mays) [4]; [24]): 0
- Plant response rating, Barnyardgrass [5, 23]: 0
- Plant response rating, Barnyardgrass [5, 24]: 0
- Plant response rating, Surinam grass [6, 23]: 0
- Plant response rating, Surinam grass [6, 24]: 0
- Plant response rating, Pigweed [7]: 20
- Plant response rating, Blackgrass [8, 23]: 0
- Plant response rating, Blackgrass [8, 24]: 0
- Plant response rating, Morningglory [9]: 10
- Plant response rating, Foxtail, Giant [10, 23]: 0
- Plant response rating, Foxtail, Giant [10, 24]: 0
- Plant response rating, Crabgrass [11, 23]: 0
- Plant response rating, Crabgrass [11, 24]: 0
- Plant response rating, Cocklebur [12, 23]: 30
- Plant response rating, Cocklebur [12, 24]: 50
- Plant response rating, Rice (rice (Oryza saliva); [25]): 0
- Plant response rating, Rice (rice (Oryza saliva); [26]): 0
- Plant response rating, Velvetleaf [13, 25]: 0
- Plant response rating, Velvetleaf [13, 26]: 0
- Plant response rating, Lambsquarters [14, 25]: 100
- Plant response rating, Lambsquarters [14, 26]: 60
- Plant response rating, Corn (corn (Zea mays) [15]; [25]): 0
- Plant response rating, Corn (corn (Zea mays) [15]; [26]): 0
- Plant response rating, Barnyardgrass [16, 25]: 100
- Plant response rating, Barnyardgrass [16, 26]: 0
- Plant response rating, Surinam grass [17, 25]: 70
- Plant response rating, Surinam grass [17, 26]: 0
- Plant response rating, Pigweed [18, 25]: 80
- Plant response rating, Pigweed [18, 26]: 0
- Plant response rating, Morningglory [19, 25]: 0
- Plant response rating, Morningglory [19, 26]: 0
- Plant response rating, Foxtail, Giant [20, 25]: 90
- Plant response rating, Foxtail, Giant [20, 26]: 20
- Plant response rating, Crabgrass [21, 25]: 100
- Plant response rating, Crabgrass [21, 26]: 20
- Plant response rating, Cocklebur [22, 25]: 0
- Plant response rating, Cocklebur [22, 26]: 0
- Plant response rating, Sunflower (Sunflower): 0
- Plant response rating (0 to 100), Nightshade (Nightshade): 10
